Experiments:
[1] = Inhibition of 12-O-tetradecanoylphorbol-13-acetate-induced EBV-early antigen activation in human Raji cells assessed per 32 pmol TPA by immunofluorescence technique; format: cell-based, human gammaherpesvirus 4
Raji [2] = assay: Inhibition of 12-O-tetradecanoylphorbol-13-acetate-induced EBV-early antigen activation in human Raji cells assessed as EA induction at 1000 molar ratio relative to 12-O-tetradecanoylphorbol-13-acetate by immunofluorescence technique; format: cell-based; set-up: scale not given: the % may be the effect or the level left; conditions: human gammaherpesvirus 4
Raji [3] = assay: Inhibition of 12-O-tetradecanoylphorbol-13-acetate-induced EBV-early antigen activation in human Raji cells assessed as EA induction at 10 molar ratio relative to 12-O-tetradecanoylphorbol-13-acetate by immunofluorescence technique; format: cell-based; set-up: scale not given: the % may be the effect or the level left; conditions: human gammaherpesvirus 4
Raji [4] = assay: Inhibition of 12-O-tetradecanoylphorbol-13-acetate-induced EBV-early antigen activation in human Raji cells assessed as EA induction at 500 molar ratio relative to 12-O-tetradecanoylphorbol-13-acetate by immunofluorescence technique; format: cell-based; set-up: scale not given: the % may be the effect or the level left; conditions: human gammaherpesvirus 4
[5] = Cytotoxicity against human Raji cells assessed as cell viability at 1000 molar ratio by trypan blue staining method; format: cell-based; conditions: read-out: Activity
Raji [6] = assay: Inhibition of 12-O-tetradecanoylphorbol-13-acetate-induced EBV-early antigen activation in human Raji cells assessed as EA induction at 100 molar ratio relative to 12-O-tetradecanoylphorbol-13-acetate by immunofluorescence technique; format: cell-based; set-up: scale not given: the % may be the effect or the level left; conditions: human gammaherpesvirus 4

| SMILES | IC50 [1] [molar ratio] | Activity (Raji [2]) [%] | Activity (Raji [3]) [%] | Activity (Raji [4]) [%] | viability at 1000 molar ratio [5] [%] | Activity (Raji [6]) [%] |
| --- | --- | --- | --- | --- | --- | --- |
| COC(=O)CC[C@@H](C)[C@H]1CC(=O)[C@@]2(C)C3=C(C(=O)C[C@]12C)[C@@]1(C)CCC(=O)C(C)(C)[C@@H]1C[C@@H]3O [METHYL LUCIDENATE A] | 287 | -0 | 95 | 24.9 | 70 | 75.1 |
| COC(=O)CC[C@@H](C)[C@H]1CC(=O)[C@@]2(C)C3=C(C(=O)[C@@H](OC(C)=O)[C@]12C)[C@@]1(C)CC[C@H](O)C(C)(C)[C@@H]1CC3=O [METHYL LUCIDENATE E2] | 288 | 1.2 | 95.4 | 27.9 | 70 | 76 |
| CC1=C(/C=C/C(C)=C/C=C/C(C)=C/C=C/C=C(C)/C=C/C=C(C)/C=C/C2=C(C)CCCC2(C)C)C(C)(C)CCC1 [BETA CAROTENE] | 400 | 8.6 | 100 | – | – | – |
| CC(=O)O[C@@H]1C(=O)C2=C(C(=O)C[C@H]3C(C)(C)[C@@H](O)CC[C@]23C)[C@]2(C)C(=O)C[C@H]([C@H](C)CCC(=O)O)[C@@]12C [LUDICENIC ACID E2] | 280 | -0 | 94 | 23.5 | 70 | 73.1 |
| C[C@H](CCC(=O)O)[C@H]1CC(=O)[C@@]2(C)C3=C(C(=O)[C@@H](O)[C@]12C)[C@@]1(C)CC[C@H](O)C(C)(C)[C@@H]1C[C@@H]3O [LUCIDENIC ACID C] | 284 | -0 | 93.1 | 24 | 70 | 72.6 |
| CC(=O)O[C@@H]1C(=O)C2=C(C(=O)C[C@H]3C(C)(C)C(=O)CC[C@]23C)[C@]2(C)C(=O)C[C@H]([C@H](C)CC(=O)CC(C)C(=O)O)[C@@]12C (some centres undefined) [GANODERIC ACID F] | 293 | 3.6 | 98.7 | 28.5 | 70 | 77.1 |
| COC(=O)CC[C@@H](C)[C@H]1C[C@H](O)[C@@]2(C)C3=C(C(=O)C[C@]12C)[C@@]1(C)CCC(=O)C(C)(C)[C@@H]1C[C@@H]3O [METHYL LUCIDENATE Q] | 283 | -0 | 95.4 | 24.6 | 70 | 73.7 |
| CC(=O)O[C@@H]1C(=O)C2=C([C@@H](O)C[C@H]3C(C)(C)[C@@H](O)CC[C@]23C)[C@]2(C)C(=O)C[C@H]([C@H](C)CCC(=O)O)[C@@]12C [LUCIDENIC ACID P] | 286 | -0 | 96.6 | 27.5 | 70 | 74.2 |
| C[C@H](CCC(=O)O)[C@H]1CC(=O)[C@@]2(C)C3=C(C(=O)C[C@]12C)[C@@]1(C)CCC(=O)C(C)(C)[C@@H]1C[C@@H]3O [LUCIDENIC ACID A] | 280 | -0 | 96.1 | 22.7 | 70 | 73 |
| CC(=O)O[C@@H]1C(=O)C2=C(C(=O)C[C@H]3C(C)(C)C(=O)CC[C@]23C)[C@]2(C)C(=O)C[C@H]([C@H](C)CCC(=O)O)[C@@]12C [LUCIDENIC ACID D2] | 287 | 2 | 96.1 | 26.1 | 70 | 73.8 |
| COC(=O)CC[C@@H](C)[C@H]1CC(=O)[C@@]2(C)C3=C(C(=O)[C@@H](OC(C)=O)[C@]12C)[C@@]1(C)CC[C@H](O)C(C)(C)[C@@H]1C[C@@H]3O [METHYL LUCIDENATE P] | 293 | 2.3 | 97.6 | 28.9 | 70 | 77.4 |
| COC(=O)CC[C@@H](C)[C@H]1CC(=O)[C@@]2(C)C3=C(C(=O)[C@@H](O)[C@]12C)[C@@]1(C)CC[C@H](O)C(C)(C)[C@@H]1CC3=O [METHYL LUCIDENATE L] | 275 | -0 | 92.6 | 21.7 | 70 | 71.9 |
| COC(=O)CC[C@@H](C)[C@H]1CC(=O)[C@@]2(C)C3=C(C(=O)[C@@H](OC(C)=O)[C@]12C)[C@@]1(C)CCC(=O)C(C)(C)[C@@H]1CC3=O [METHYL LUCIDENATE D2] | 290 | 2.2 | 98 | 29.3 | 70 | 76.9 |
| C[C@H](CC(=O)C[C@@H](C)[C@H]1CC(=O)[C@@]2(C)C3=C(C(=O)C[C@]12C)[C@@]1(C)CCC(=O)C(C)(C)[C@@H]1CC3=O)C(=O)O [GANODERIC ACID E] | 281 | -0 | 97.4 | 28.3 | 70 | 79 |
| COC(=O)C(C)CC(=O)C[C@@H](C)[C@H]1CC(=O)[C@@]2(C)C3=C(C(=O)[C@@H](OC(C)=O)[C@]12C)[C@@]1(C)CCC(=O)C(C)(C)[C@@H]1CC3=O (some centres undefined) [METHYL GANODERATE F] | 289 | 2.3 | 100 | 26.4 | 70 | 75.3 |
| COC(=O)CC[C@@H](C)[C@H]1CC(=O)[C@@]2(C)C3=C(C(=O)C[C@]12C)[C@@]1(C)CCC(=O)C(C)(C)[C@@H]1CC3=O [METHYL LUCIDENATE F] | 285 | 2.1 | 98.3 | 26.8 | 70 | 75.4 |
| CC(=O)OC1C[C@H]([C@H](C)CC/C=C(/C)C(=O)O)[C@@]2(C)CC=C3C(=CC[C@H]4C(C)(C)C(=O)CC[C@]34C)[C@]12C (some centres undefined) | 281 | -0 | 95.3 | 26.4 | 70 | 74.6 |
